The source of these data is patent US20230273203A1, “METHOD FOR DETERMINING FORMULATION OF COMBINATION CONSISTING OF MULTIPLE CANDIDATE SUBSTRATES OF SMELL, TASTE, OR SOMATIC SENSATION AND REPRODUCING SMELL, TASTE, OR SOMATIC SENSATION OF TARGET SUBSTANCE” (Japan Tobacco Inc., priority 2020, published 2023).

One test concerns OR9. Briefly: Olfactory receptor response measurement, CRE-luciferase reporter in HEK-Olf cells. It counts as cell-based, human. The settings on record: ◯ = receptor responds to the fragrance; luminescence after 3 hours. (Reporter assays use an easily measured gene product as a stand-in for the process of interest.)
A further test concerns OR3. The description is as above. The following applies: ◯ = receptor responds to the fragrance; luminescence after 3 hours. It counts as cell-based, human.
Another test relates to OR7. The test is described as above. The test is classed as cell-based, human. The following applies: ◯ = receptor responds to the fragrance; luminescence after 3 hours.
The subject of a further test is OR8. Described as above. It counts as cell-based, human. The following applies: ◯ = receptor responds to the fragrance; luminescence after 3 hours.
The next test deals with OR10. Described as above. The test is classed as cell-based, human. The settings on record: ◯ = receptor responds to the fragrance; luminescence after 3 hours. The source says: (§1) An olfactory receptor gene library (pFN21KSPc HaloTag-OR) prepared by inserting 351 human olfactory receptor genes obtained from a human cDNA library into the pFN21KSPc HaloTag vector was purchased from Kazusa Genome Technologies. Of the 351 types, olfactory receptors OR1A1, OR2B11, and the like were polymorphisms known to show low responses to known agonists, such that the olfactory receptors were modified into polymorphisms with high responsiveness for use in the subsequent test (Joel D. Mainland, et al., Nat Neurosci. 2014; 17(1): p. 114-120).
The cell line HEK-Olf obtained in Example 1 was prepared in DMEM medium (Thermo Fisher) and then seeded in a 96-well plate (Corning) at 1×10^4 cells/well. Subsequently, pFN21KSPc HaloTag-OR and pGL4.29[luc2P/CRE/Hygro] […]
(§2) Each olfactory receptor expressing HEK-Olf obtained above was cultured for 24 hours at 37° C. under 5% CO2; then the medium was removed, and test compounds (candidate substances) prepared appropriately in DMEM medium were added in 50 μL aliquots. […] After 3 hours of reaction at 37° C. under 5% CO2, responses of the olfactory receptors were obtained by luminescence measurement using ONE-Glo (trademark) Luciferase Assay kit (Promega).
(§3) The response intensity R of an olfactory receptor at each concentration was calculated using the luminescence intensity (RLU) obtained in the measurement, based on formula (6) below: […]

Another test relates to OR1. Described as above. The following applies: ◯ = receptor responds to the fragrance; luminescence after 3 hours. The test is classed as cell-based, human.
Text: as §1
(§4) The cell line HEK-Olf obtained in Example 1 was prepared in DMEM medium (Thermo Fisher) and then seeded in a 96-well plate (Corning) at 1×10^4 cells/well. Subsequently, pFN21KSPc HaloTag-OR and pGL4.29[luc2P/CRE/Hygro] Vector (Promega) were introduced into the HEK-Olf with ViaFect (trademark) Transfection Reagent (Promega). At this time, pFN21KSPc HaloTag-OR and pGL4.29[luc2P/CRE/Hygro] Vector were prepared to give 70 ng/well and 30 ng/well, respectively. Using each olfactory receptor expressing HEK-Olf thus constructed, measurement of responses of the olfactory receptors was performed as follows.
(§5) Each olfactory receptor expressing HEK-Olf obtained above was cultured for 24 hours at 37° C. under 5% CO2; then the medium was removed, and test compounds (candidate substances) prepared appropriately in DMEM medium were added in 50 μL aliquots. DMEM medium containing no test compound was added to negative control wells, and forskolin adjusted to 3 μM was added to positive control wells. After 3 hours of reaction at 37° C. under 5% CO2, responses of the olfactory receptors were obtained by luminescence measurement using ONE-Glo (trademark) Luciferase Assay kit (Promega).
as §3
(§6) Furthermore, using the curve fitting software XLFit (IDBS), the maximum response intensity and EC50 of the dose response curve were derived.

The subject of another test is OR2. The description is as above. The following applies: ◯ = receptor responds to the fragrance; luminescence after 3 hours. The test is classed as cell-based, human.
Text: as §1, §4, §5, §3, §6

The next test has as its system OR4. The test is described as above. The test is classed as cell-based, human. The settings on record: ◯ = receptor responds to the fragrance; luminescence after 3 hours.
Text: as §1, §4, §5, §3, §6

The next test has as its system OR5. Described as above. The test is classed as cell-based, human. The following applies: ◯ = receptor responds to the fragrance; luminescence after 3 hours.
Text: as §1, §4, §5, §3, §6

A further test has as its system OR6. Described as above. The settings on record: ◯ = receptor responds to the fragrance; luminescence after 3 hours. The test is classed as cell-based, human.
Text: as §1, §4, §5, §3, §6

Test [1] in a line: Sensory evaluation of similarity in odor quality to coumarin (VAS). The following applies: headspace aroma, panel of five trained experts, samples in propylene glycol at Table 2 concentrations; FIG. 4. It counts as in vivo, human. As for the experimental part: In this example, similarity in odor quality between coumarin and the coumarin reconstitution fragrance obtained in Example 3 was verified by sensory evaluation. In the sensory evaluation, the verification was performed by a panel of five trained experts. The similarity in odor was obtained by evaluating the similarity between the headspace aromas of coumarin presented as a reference and each evaluation sample presented blindly, using a Visual Analog Scale (VAS).

Test [2] has as its system 351 human olfactory receptors. Nature of the test: Response screen of 351 human olfactory receptors. It counts as cell-based. The settings on record: out of 351 human olfactory receptors; all responders class II.
Text: An olfactory receptor gene library (pFN21KSPc HaloTag-OR) prepared by inserting 351 human olfactory receptor genes obtained from a human cDNA library into the pFN21KSPc HaloTag vector was purchased from Kazusa Genome Technologies. Of the 351 types, olfactory receptors OR1A1, OR2B11, and the like were polymorphisms known to show low responses to known agonists, such that the olfactory receptors were modified into polymorphisms with high responsiveness for use in the subsequent test (Joel D. Mainland, et al., Nat Neurosci. 2014; 17(1): p. 114-120). […]
as §2, §3
Based on the above-described procedure, 351 human olfactory receptors were measured for responses to coumarin as a fragrance. […]

For `CCCCC(=O)OCC` [Ethyl Valerate, ethyl valerate], the “response of olfactory receptor OR9 to the fragrance” value (from here on “response of olfactory receptor OR9”) in the test on OR9 is “◯”.

`CC(C)[C@@H]1CC[C@@H](C)CC1=O` [Menthone, menthone]: the “response of olfactory receptor OR3 to the fragrance” value (“response of olfactory receptor OR3” for short) in the test with OR3 is reported as “◯”.

Turning to `C=C(C)[C@@H]1CCC2=CC(=O)C[C@@H](C)[C@]2(C)C1` [Nootkatone, nootkatone], the “response of olfactory receptor OR7 to the fragrance” value in the test with OR7 was “◯”. Further, the “response of olfactory receptor OR8 to the fragrance” value with OR8 was “◯”. Moreover, the “response of olfactory receptor OR9” value in the test with OR9 is reported as “◯”. Also, the “response of olfactory receptor OR10 to the fragrance” value with OR10 is on record as “◯”.

As for `O=Cc1ccc2c(c1)OCO2` [Piperonal, piperonal], in the test on OR1, the “response of olfactory receptor OR1 to the fragrance” value is given as “◯”. The “response of olfactory receptor OR2 to the fragrance” value in the test with OR2 is listed as “◯”. For the same compound, the “response of olfactory receptor OR4 to the fragrance” value with OR4 is “◯”. For the same compound, the “response of olfactory receptor OR5 to the fragrance” value (“response of olfactory receptor OR5” for short) in the test with OR5 is reported as “◯”. The “response of olfactory receptor OR6 to the fragrance” value with OR6 is reported as “◯”. In addition, the “similarity in odor quality to coumarin (VAS)” value in test [1] is “low similarity”.

Turning to `O=c1ccc2ccccc2o1` [coumarin, reference compound], in the test with OR1, the “response of olfactory receptor OR1 to the fragrance” value is reported as “confirmed to respond”. Moreover, the “response of olfactory receptor OR2 to the fragrance” value in the test on OR2 is given as “confirmed to respond”. Moreover, the “response of olfactory receptor OR4 to the fragrance” value in the test on OR4 is listed as “confirmed to respond”. For the same compound, the “response of olfactory receptor OR5” value with OR5 is “confirmed to respond”. Moreover, the “response of olfactory receptor OR6 to the fragrance” value in the test on OR6 is “confirmed to respond”. Further, in the test on OR3, the “response of olfactory receptor OR3” value was “confirmed to respond”. In test [2], the “number of olfactory receptors showing dose-dependent responses” value is “six”.

On to `O=C(O)C=Cc1ccccc1O` [o-Hydroxycinnamic Acid, o-hydroxycinnamic acid], for which, in the test with OR7, the “response of olfactory receptor OR7 to the fragrance” value is reported as “◯”. Besides, the “response of olfactory receptor OR8 to the fragrance” value in the test with OR8 is recorded as “◯”. The “response of olfactory receptor OR9” value in the test with OR9 is listed as “◯”.

For `CCCC1CCC(=O)O1` (stereo not shown) [γ-Heptalactone, γ-heptalactone], the “response of olfactory receptor OR1 to the fragrance” value in the test on OR1 is “◯”. Further, the “response of olfactory receptor OR5” value in the test on OR5 is listed as “◯”. Besides, the “response of olfactory receptor OR3” value in the test on OR3 is “◯”.
